Experimental findings from article PMC9055924 (RSC Advances, 2020) are described below.

The target in this assay is T1, TLP-1 (Prunus mume, UniProt A0ABM0NSQ8).
T1 sequence (A0ABM0NSQ8 27-249): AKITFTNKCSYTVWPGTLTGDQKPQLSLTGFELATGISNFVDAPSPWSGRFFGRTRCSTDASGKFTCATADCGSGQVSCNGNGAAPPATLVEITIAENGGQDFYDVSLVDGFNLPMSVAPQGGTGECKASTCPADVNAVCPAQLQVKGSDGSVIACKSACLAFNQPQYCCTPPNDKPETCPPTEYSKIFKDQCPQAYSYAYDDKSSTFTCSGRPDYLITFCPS
Briefly: catechol oxidation, absorbance at […] nm. In kind it is biochemical. The following applies: read-out: Relative activity (%) / 10 (mM).

Turning to `CCCCCCc1ccc(O)cc1O` [4-Hexylresorcinol], the activity at 10000 µM was found to be 15.6 ± 0.44%.

Take `NC(=O)CC[C@H](N)C(=O)O` [L-Glutamine]: the activity at 10000 µM stood at 83.5 ± 2.24%.
